In ChEMBL document CHEMBL1201862, “PubChem BioAssay data set” (2004):
Activity calls are given as the source filed them.

Tests used:
Fatty acid synthase [1] = molecular target: T1, Fatty acid synthase (Homo sapiens, UniProt P49327); assay: inhibition of human FAS-TE enzyme activity – biochemical, endpoint fluorescence intensity, uHTS hits, dose response (AID 624327); format: functional;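 note: fluorescence from hydrolysis of an O-methyl fluorescein acyl ester substrate by the enzyme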
Fatty acid synthase [2] = molecular target: T1, Fatty acid synthase; assay: inhibition of human FAS-TE enzyme activity – biochemical, kinetic fluorescence intensity, dose response (AID 624326); format: functional;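 note: rate of fluorescence rise from hydrolysis of a fluorogenic O-methyl fluorescein ester substrate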
Vero = assay: cells; format: functional; settings: Chlorocebus sabaeus
[3] = molecular target: T2, DNA repair protein RAD52 homolog (Homo sapiens, UniProt P43351); format: functional, biochemical
T2 sequence (P43351 whole entry): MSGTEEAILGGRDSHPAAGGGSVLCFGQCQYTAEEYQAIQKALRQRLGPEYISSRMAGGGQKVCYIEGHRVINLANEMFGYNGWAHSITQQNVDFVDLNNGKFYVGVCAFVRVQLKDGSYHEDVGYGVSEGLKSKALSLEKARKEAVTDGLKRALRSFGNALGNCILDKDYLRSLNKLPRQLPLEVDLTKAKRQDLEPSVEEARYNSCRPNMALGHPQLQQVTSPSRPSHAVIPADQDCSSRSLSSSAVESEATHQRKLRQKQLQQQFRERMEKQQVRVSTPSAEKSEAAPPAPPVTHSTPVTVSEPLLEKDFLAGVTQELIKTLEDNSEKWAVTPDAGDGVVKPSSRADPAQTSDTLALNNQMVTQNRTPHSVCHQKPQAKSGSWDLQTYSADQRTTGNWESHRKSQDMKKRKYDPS

Estrogen receptor beta = Estrogen receptor beta (Homo sapiens, UniProt Q92731);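 note: recombinant ER-beta bound to coactivator SRC1 peptide in presence of estradiol agonist; inhibitors block coactivator peptide binding and lower the FRET signal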
Chain of Estrogen receptor beta (Q92731 whole entry): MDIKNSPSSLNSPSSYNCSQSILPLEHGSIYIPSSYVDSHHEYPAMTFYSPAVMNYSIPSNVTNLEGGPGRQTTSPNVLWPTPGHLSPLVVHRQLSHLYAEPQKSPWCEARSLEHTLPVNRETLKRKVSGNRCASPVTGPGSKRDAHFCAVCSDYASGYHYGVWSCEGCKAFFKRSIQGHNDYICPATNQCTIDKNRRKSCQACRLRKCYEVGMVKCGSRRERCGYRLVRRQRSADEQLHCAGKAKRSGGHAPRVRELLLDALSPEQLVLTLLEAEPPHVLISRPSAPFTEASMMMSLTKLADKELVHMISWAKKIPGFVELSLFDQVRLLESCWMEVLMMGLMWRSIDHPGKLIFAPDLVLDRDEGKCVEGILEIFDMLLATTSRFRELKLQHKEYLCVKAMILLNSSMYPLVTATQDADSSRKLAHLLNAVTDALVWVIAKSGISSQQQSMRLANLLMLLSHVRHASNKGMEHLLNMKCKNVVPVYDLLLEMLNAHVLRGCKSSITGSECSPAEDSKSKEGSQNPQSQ

[4] = viability of uninfected HEp-2 cells – cell-based, HTS, cytotoxicity control for RSV inhibitor project, dose response (AID 2410); format: functional; settings: human respiratory syncytial virus
[5] = tested on: Streptococcus sp. 'group A'; assay: Streptococcus pyogenes SK(-)GAS viability under kanamycin – luminescence, BacTiterGlo, confirmation, counter-screen for streptokinase expression inhibitor project, dose response (AID 1900); format: functional, organism-based
Streptokinase A = molecular target: T3, Streptokinase A (Streptococcus pyogenes serotype M1, UniProt P10520); assay: viability-normalized secreted streptokinase activity reduction – plasminogen activation absorbance, OD405, dose response (AID 1914); format: functional, Streptococcus pyogenes M1 GAS;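 note: secreted streptokinase activity via plasminogen activation per viability signal from cell pellet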
T3 sequence (P10520 whole entry): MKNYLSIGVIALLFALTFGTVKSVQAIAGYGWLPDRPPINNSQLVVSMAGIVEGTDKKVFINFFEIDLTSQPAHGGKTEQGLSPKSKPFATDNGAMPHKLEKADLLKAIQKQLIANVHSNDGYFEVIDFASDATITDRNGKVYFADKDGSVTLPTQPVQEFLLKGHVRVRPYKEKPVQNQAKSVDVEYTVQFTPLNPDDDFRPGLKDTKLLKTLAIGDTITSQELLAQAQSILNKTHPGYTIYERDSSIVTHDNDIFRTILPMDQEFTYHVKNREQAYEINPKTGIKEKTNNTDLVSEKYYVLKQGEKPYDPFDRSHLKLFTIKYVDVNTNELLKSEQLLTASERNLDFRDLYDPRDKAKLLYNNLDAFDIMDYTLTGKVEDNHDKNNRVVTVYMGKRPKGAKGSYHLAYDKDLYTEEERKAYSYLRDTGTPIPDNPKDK

Streptococcus = assay: GAS UMAA2166 growth inhibition – luminescence, BacTiterGlo, counter-screen for streptokinase expression inhibitor project, dose response (AID 1915); format: functional, organism-based;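 note: potency for reduction of bacterial viability or growth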
[6] = molecular target: T4, Corticotropin-releasing factor receptor 2/Corticotropin-releasing factor-binding protein (Homo sapiens, UniProt P24387+Q13324); assay: Dose Response confirmation of uHTS hits for small molecule antagonists of the CRF-binding protein and CRF-R2 receptor complex.; format: functional; settings: read-out: IC50_Mean
T4 sequence (Q13324 whole entry): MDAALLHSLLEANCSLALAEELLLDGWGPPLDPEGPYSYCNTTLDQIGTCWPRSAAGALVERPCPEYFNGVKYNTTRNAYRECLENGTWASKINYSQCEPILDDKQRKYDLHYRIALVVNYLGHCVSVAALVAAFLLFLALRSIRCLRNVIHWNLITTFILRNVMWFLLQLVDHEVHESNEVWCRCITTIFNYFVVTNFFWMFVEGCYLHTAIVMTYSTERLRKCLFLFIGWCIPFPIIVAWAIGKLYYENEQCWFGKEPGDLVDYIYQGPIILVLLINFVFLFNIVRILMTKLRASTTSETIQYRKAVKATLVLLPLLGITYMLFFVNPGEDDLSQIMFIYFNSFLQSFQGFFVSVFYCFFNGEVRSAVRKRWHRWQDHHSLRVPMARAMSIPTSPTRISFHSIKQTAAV
T4 sequence (P24387 whole entry): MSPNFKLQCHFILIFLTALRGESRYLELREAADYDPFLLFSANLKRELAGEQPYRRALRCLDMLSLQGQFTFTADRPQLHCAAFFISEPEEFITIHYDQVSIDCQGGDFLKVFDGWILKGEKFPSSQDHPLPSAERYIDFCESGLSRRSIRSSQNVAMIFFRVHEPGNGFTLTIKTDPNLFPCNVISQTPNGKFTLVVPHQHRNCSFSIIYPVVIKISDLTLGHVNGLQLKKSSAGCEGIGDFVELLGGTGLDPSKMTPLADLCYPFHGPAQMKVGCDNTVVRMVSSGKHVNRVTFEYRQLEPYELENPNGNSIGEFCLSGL

[7] = molecular target: T4, Corticotropin-releasing factor receptor 2/Corticotropin-releasing factor-binding protein; assay: activators of CRF receptor 2 with binding protein – uHTS hits, confirmation (AID 602473); format: functional; settings: read-out: EC50_Mean
[8] = blockers of CRF-binding protein–CRF-R2 complex – cell-based, uHTS hits, 384-well, dose response (AID 651639); format: functional, Homo sapiens; settings: read-out: IC50_Mean
Prothrombin = Prothrombin (Homo sapiens, UniProt P00734); assay: Thrombin 1536 HTS Dose Response Confirmation. [Related pubchem assays: 1046 (Thrombin 1536 HTS; hits were confirmed in this assay)]; format: functional
[9] = molecular target: T5, Heat shock factor protein 1 (Mus musculus, UniProt P38532); assay: enhancement of HSF1-driven luciferase signal – cell-based, NIH3T3, luminescence, dose retest, confirmation (AID 435004); format: functional;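 note: stress induced by proteasome inhibitor MG132 added 30 min after compound; luciferase reporter driven by HSF1 response element in NIH3T3 cells; actives raise luminescence as potentiators of the MG132 stress response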
T5 sequence (P38532 whole entry): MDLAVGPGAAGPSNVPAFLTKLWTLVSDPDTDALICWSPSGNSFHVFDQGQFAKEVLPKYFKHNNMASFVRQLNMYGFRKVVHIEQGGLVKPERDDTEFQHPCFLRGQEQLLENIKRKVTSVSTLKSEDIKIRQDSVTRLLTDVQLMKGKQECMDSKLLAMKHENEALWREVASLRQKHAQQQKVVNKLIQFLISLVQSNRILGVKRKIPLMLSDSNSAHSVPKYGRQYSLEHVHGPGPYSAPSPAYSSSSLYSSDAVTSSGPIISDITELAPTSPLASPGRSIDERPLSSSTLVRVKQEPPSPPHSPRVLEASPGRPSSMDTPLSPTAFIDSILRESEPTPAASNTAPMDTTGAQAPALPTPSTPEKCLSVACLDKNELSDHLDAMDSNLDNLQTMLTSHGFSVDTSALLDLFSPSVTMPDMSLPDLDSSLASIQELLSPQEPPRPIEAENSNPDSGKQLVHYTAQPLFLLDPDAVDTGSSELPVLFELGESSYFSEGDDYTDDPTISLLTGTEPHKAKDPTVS

Cytochrome P450 1A2 = molecular target: T6, Cytochrome P450 1A2 (Homo sapiens, UniProt P05177);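 note: PubChem cytochrome P450 panel assay, CYP1A2 panel member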
T6 sequence (P05177 whole entry): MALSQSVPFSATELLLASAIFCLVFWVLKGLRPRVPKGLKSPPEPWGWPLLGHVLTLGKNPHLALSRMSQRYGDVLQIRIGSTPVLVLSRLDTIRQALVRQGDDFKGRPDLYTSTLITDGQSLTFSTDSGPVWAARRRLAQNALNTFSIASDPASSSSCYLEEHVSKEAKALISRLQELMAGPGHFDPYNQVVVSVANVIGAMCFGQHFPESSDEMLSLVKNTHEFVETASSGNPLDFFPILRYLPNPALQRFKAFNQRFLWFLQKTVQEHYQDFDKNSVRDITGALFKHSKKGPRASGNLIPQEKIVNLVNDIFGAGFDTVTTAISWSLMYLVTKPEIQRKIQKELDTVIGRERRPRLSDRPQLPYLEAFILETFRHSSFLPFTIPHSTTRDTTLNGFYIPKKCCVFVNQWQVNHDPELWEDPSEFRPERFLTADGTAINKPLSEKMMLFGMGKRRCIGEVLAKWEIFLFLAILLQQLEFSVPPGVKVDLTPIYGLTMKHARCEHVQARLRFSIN

Cytochrome P450 2C9 = Cytochrome P450 2C9 (Homo sapiens, UniProt P11712)
Chain of Cytochrome P450 2C9 (P11712 whole entry): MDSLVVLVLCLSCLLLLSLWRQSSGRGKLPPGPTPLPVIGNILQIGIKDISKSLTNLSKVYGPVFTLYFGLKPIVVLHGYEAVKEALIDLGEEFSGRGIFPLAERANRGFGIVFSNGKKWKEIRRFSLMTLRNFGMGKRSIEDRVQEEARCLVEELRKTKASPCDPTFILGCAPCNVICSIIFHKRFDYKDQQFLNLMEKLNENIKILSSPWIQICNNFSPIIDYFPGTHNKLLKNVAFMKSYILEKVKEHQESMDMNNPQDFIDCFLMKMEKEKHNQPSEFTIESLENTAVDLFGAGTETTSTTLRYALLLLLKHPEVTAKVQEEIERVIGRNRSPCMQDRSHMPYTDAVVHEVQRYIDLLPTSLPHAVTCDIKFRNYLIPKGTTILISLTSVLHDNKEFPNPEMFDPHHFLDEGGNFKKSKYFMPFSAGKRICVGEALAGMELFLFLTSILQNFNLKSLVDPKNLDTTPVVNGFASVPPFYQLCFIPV

T1 sequence (P49327 whole entry): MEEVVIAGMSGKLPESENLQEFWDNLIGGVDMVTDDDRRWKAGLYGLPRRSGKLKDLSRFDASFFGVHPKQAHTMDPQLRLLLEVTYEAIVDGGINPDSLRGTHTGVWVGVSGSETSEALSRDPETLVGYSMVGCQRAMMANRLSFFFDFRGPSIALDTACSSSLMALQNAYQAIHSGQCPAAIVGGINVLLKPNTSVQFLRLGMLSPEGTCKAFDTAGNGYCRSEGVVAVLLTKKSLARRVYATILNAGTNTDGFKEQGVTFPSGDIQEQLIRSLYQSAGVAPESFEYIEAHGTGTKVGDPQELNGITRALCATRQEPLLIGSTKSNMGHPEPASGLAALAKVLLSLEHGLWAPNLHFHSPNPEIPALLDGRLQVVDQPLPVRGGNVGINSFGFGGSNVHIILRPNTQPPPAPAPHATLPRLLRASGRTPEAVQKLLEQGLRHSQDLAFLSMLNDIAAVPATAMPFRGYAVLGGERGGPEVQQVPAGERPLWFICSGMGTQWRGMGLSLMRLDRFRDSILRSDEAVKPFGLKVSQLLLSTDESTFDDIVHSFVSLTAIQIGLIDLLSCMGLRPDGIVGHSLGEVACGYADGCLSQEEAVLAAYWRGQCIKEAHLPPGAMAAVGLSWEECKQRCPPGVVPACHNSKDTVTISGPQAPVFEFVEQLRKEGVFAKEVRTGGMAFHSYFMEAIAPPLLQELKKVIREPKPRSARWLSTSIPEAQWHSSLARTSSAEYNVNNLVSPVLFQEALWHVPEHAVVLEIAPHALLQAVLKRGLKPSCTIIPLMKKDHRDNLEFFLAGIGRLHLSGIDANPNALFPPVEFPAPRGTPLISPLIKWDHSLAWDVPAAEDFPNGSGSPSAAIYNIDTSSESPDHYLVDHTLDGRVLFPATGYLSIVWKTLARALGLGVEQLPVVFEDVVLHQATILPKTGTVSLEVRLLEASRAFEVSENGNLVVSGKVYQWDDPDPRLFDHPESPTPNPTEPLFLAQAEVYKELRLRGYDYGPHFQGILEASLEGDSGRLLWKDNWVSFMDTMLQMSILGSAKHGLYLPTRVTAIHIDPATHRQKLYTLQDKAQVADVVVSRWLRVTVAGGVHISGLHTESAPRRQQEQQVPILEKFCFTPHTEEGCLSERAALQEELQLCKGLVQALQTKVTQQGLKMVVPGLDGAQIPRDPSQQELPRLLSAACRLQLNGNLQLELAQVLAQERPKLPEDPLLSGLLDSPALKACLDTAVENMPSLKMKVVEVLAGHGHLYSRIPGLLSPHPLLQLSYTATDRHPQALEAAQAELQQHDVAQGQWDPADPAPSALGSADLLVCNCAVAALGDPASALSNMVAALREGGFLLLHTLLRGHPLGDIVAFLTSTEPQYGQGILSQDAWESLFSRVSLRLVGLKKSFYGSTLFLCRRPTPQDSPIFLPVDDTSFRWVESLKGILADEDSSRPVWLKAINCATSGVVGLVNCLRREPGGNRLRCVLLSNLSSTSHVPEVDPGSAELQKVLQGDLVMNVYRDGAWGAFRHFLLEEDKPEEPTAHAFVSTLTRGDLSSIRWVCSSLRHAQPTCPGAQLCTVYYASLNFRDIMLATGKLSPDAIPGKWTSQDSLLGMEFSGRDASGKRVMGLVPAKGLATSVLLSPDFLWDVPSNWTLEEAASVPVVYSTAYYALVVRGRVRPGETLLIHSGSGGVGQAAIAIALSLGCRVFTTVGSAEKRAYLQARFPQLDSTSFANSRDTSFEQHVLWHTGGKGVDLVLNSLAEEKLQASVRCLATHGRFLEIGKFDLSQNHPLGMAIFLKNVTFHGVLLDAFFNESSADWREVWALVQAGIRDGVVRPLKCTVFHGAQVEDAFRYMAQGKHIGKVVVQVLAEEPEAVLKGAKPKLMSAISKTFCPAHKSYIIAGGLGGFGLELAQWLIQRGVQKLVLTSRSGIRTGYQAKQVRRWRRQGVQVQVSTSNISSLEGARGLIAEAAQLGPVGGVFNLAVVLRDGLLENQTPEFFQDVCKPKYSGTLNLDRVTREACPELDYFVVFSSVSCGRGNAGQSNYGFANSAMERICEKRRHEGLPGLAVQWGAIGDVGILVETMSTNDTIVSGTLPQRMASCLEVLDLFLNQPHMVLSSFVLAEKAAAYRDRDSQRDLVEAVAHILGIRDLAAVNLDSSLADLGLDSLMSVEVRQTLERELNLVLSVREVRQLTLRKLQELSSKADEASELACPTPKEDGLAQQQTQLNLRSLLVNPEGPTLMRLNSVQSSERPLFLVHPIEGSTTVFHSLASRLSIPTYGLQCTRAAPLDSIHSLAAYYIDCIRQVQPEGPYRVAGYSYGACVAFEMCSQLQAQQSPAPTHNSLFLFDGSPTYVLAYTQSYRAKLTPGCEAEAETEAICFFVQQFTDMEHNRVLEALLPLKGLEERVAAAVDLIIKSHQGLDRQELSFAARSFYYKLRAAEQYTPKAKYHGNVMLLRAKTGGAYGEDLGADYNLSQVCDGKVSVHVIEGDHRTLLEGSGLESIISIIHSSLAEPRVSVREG

Q: Which results are given for `CC1CCN(S(=O)(=O)c2ccc3c(c2)c(=O)c(C(=O)NCc2ccco2)cn3C)CC1`?
A: IC50 (Fatty acid synthase [1]): 3.81 µM (active); IC50 (Fatty acid synthase [2]): 2.4 µM (active)

Q: With `CCCCc1nc2sc3c(SCCN(C)C)ncnc3c2c2c1CCC2` as the compound, how does the CC50 (Vero) read?
A: 20.6 µM (active)

Q: What about the AC50 [3] of the same compound?
A: 19.7 µM (active)

Q: Which IC50 (Estrogen receptor beta) does the source give for `Nc1nonc1NC(=O)CSc1ncccc1C(=O)O` here?
A: > 50 µM (not active)

Q: Which IC50 (Fatty acid synthase [1]) does the source give for `CC(C)c1ccc(S(=O)(=O)c2nnn3c2nc(NCC2CCCO2)c2ccccc23)cc1` (stereo not drawn) here?
A: 1.72 µM (active)

Q: And the IC50 (Fatty acid synthase [2])?
A: 1.34 µM (active)

Q: For `COC(=O)c1sc(-c2ccc(C(C)(C)C)cc2)cc1NC(=O)CSCC(=O)O`, which CC50 [4] is on record?
A: 15.7 µM (active)

Q: What about the EC50 [5] of the same compound?
A: 8.94 µM (active)

Q: What about the EC50 (Streptokinase A) of the same compound?
A: 6.69 µM (active)

Q: And the EC50 (Streptococcus)?
A: 12.1 µM (active)

Q: What about the IC50 [6] of the same compound?
A: 4.1 µM (active)

Q: What about the EC50 [7] of the same compound?
A: 36.8 µM (active)

Q: What about the IC50 [8] of the same compound?
A: 14.1 µM (active)

Q: Which IC50 (Prothrombin) does the source give for `COc1ccccc1NC(=O)c1sc2ncn(Cc3cccc(C)c3)c(=O)c2c1C` here?
A: > 50 µM (not active)

Q: For `CC(C)N1CCc2c(sc(NC(=O)c3cc4cc([N+](=O)[O-])ccc4s3)c2C(N)=O)C1`, which EC50 [7] is on record?
A: > 53 µM (inactive)

Q: What about the AC50 [3] of the same compound?
A: 10.3 µM (active)

Q: With `COc1cccc(NC(=O)CN2C(=O)CSc3ccc(S(=O)(=O)N4CCC(C)CC4)cc32)c1` as the compound, how does the IC50 (Fatty acid synthase [1]) read?
A: 6.24 µM (active)

Q: What about the IC50 (Fatty acid synthase [2]) of the same compound?
A: 2.44 µM (active)

Q: Which IC50 (Estrogen receptor beta) does the source give for `O=C(Nc1nccs1)c1ccc2nccnc2c1` here?
A: 14.9 µM (active)

Q: Which IC50 (Fatty acid synthase [1]) does the source give for `O=C(Cn1nc(-c2ccco2)ccc1=O)Nc1cc(C(F)(F)F)ccc1Cl` here?
A: 11.8 µM (active)

Q: And the IC50 (Fatty acid synthase [2])?
A: 13.1 µM (active)

Q: Which EC50 [9] does the source give for `O=[N+]([O-])c1ccc(Sc2ccccc2)nc1` here?
A: > 260 µM (inactive)

Q: What about the IC50 [6] of the same compound?
A: < 0.368 µM (active)

Q: And the EC50 [7]?
A: > 53 µM (inactive)

Q: And the IC50 [8]?
A: 5.42 µM (active)

Q: What does the source list for `Cc1nc(Sc2ccccc2)c(C#N)c(C)c1[N+](=O)[O-]`?
A: IC50 (Fatty acid synthase [1]): 13.9 µM (active); IC50 (Fatty acid synthase [2]): 8.81 µM (active)

Q: For `COC(=O)c1nnc(NC(=O)c2ccccc2)[nH]1`, which IC50 (Prothrombin) is on record?
A: 0.0545 µM (active)

Q: What about the AC50 (Cytochrome P450 1A2) of the same compound?
A: 17.8 µM (inconclusive)

Q: What about the AC50 (Cytochrome P450 2C9) of the same compound?
A: 3.98 µM (inconclusive)

Q: For `CCn1cc(C(=O)NCc2ccco2)c(=O)c2cc(S(=O)(=O)N3CCCC3)ccc21`, which IC50 (Prothrombin) is on record?
A: 1.31 µM (active)

Q: For `CCCC(=O)n1nc(-c2ccccc2)nc1SC`, which IC50 (Prothrombin) is on record?
A: 0.935 µM (active)
